# Experimental data published in ChEMBL document CHEMBL5356958, “Discovery of a Highly Potent and Selective MYOF Inhibitor with Improved Water Solubility for the Treatment of Gastric Cancer” (J Med Chem, 2023).
# The source made the active and inactive calls. The rule behind the calls is not given here.
# Tests used:
# [1] = Clearance in ICR mouse at 1 mg/kg, iv; format: ADME, organism-based; conditions: in vivo
# BGC-823 = assay: Antiproliferative activity against human BGC-823 cells incubated for 48 hrs by SRB assay; format: functional, cell-based; conditions: BGC-823, 48 h
# MKN-45 = assay: Antitumor activity against human MKN-45 cells xenografted in BALB/c mouse assessed as tumor growth inhibition at 15 mg/kg/day, ip measured every 3 days for 21 days; format: functional; conditions: MKN-45, 504 h, time 21 day, read-out: TGI
# [2] = Toxicity in BALB/c mouse assessed as change in heart morphology at 15 to 30 mg/kg, ip measured every 3 days for 21 days by HE staining based assay; format: organism-based; conditions: in vivo, 504 h, dose 15-30 mg/kg, time 21 day
# Myoferlin = Myoferlin (Homo sapiens, UniProt Q9NZM1); assay: Binding affinity to MYOF in human MKN45 cells at 50 to 100 uM incubated for 1 hr by CETSA; format: cell-based; conditions: MKN-45, dose 50-100 µM
# Cytochrome P450 2C19 = Cytochrome P450 2C19 (Homo sapiens, UniProt P33261); assay: Inhibition of CYP2C19 in human liver microsomes; format: ADME, Microsome
# [3] = Mean residence time in ICR mouse at 10 mg/kg, po; format: ADME, organism-based; conditions: in vivo
# CYP1A = CYP1A (Homo sapiens, UniProt P04798+P05177); assay: Inhibition of CYP1A in human liver microsomes; format: ADME, Microsome
# hERG (KCNH2) = hERG (KCNH2) (Homo sapiens, UniProt Q12809); assay: Inhibition of human ERG at 40 uM relative to control; format: toxicity
# [4] = Half life in ICR mouse at 1 mg/kg, iv; format: ADME, organism-based; conditions: in vivo
# Cytochrome P450 2C9 = Cytochrome P450 2C9 (Homo sapiens, UniProt P11712); assay: Inhibition of CYP2C9 in human liver microsomes; format: ADME, Microsome
# [5] = Oral bioavailability in ICR mouse at 10 mg/kg; format: ADME, organism-based; conditions: in vivo
# AGS = assay: Antiproliferative activity against human AGS cells incubated for 48 hrs by SRB assay; format: functional, cell-based
# Cytochrome P450 3A4 = Cytochrome P450 3A4 (Homo sapiens, UniProt P08684); assay: Inhibition of CYP3A4 in human liver microsomes; format: ADME, Microsome
# [6] = Volume of distribution at steady state in ICR mouse at 1 mg/kg, iv; format: ADME, organism-based; conditions: in vivo, read-out: Vdss
# Chain of Cytochrome P450 3A4 (P08684 whole entry): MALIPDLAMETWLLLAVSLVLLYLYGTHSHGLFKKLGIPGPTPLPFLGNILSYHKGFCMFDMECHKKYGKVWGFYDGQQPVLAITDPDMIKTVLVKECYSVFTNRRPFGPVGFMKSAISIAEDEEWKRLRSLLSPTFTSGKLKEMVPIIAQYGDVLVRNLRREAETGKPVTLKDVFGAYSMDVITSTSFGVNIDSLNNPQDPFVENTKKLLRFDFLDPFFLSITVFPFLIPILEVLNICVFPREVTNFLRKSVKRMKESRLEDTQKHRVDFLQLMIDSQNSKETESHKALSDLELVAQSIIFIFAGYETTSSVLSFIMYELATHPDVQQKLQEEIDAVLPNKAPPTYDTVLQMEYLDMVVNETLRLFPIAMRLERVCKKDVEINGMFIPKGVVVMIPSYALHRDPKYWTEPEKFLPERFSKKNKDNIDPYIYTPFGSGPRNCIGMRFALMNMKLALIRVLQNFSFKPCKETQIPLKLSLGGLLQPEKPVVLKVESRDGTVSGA
# Chain of Myoferlin (Q9NZM1 whole entry): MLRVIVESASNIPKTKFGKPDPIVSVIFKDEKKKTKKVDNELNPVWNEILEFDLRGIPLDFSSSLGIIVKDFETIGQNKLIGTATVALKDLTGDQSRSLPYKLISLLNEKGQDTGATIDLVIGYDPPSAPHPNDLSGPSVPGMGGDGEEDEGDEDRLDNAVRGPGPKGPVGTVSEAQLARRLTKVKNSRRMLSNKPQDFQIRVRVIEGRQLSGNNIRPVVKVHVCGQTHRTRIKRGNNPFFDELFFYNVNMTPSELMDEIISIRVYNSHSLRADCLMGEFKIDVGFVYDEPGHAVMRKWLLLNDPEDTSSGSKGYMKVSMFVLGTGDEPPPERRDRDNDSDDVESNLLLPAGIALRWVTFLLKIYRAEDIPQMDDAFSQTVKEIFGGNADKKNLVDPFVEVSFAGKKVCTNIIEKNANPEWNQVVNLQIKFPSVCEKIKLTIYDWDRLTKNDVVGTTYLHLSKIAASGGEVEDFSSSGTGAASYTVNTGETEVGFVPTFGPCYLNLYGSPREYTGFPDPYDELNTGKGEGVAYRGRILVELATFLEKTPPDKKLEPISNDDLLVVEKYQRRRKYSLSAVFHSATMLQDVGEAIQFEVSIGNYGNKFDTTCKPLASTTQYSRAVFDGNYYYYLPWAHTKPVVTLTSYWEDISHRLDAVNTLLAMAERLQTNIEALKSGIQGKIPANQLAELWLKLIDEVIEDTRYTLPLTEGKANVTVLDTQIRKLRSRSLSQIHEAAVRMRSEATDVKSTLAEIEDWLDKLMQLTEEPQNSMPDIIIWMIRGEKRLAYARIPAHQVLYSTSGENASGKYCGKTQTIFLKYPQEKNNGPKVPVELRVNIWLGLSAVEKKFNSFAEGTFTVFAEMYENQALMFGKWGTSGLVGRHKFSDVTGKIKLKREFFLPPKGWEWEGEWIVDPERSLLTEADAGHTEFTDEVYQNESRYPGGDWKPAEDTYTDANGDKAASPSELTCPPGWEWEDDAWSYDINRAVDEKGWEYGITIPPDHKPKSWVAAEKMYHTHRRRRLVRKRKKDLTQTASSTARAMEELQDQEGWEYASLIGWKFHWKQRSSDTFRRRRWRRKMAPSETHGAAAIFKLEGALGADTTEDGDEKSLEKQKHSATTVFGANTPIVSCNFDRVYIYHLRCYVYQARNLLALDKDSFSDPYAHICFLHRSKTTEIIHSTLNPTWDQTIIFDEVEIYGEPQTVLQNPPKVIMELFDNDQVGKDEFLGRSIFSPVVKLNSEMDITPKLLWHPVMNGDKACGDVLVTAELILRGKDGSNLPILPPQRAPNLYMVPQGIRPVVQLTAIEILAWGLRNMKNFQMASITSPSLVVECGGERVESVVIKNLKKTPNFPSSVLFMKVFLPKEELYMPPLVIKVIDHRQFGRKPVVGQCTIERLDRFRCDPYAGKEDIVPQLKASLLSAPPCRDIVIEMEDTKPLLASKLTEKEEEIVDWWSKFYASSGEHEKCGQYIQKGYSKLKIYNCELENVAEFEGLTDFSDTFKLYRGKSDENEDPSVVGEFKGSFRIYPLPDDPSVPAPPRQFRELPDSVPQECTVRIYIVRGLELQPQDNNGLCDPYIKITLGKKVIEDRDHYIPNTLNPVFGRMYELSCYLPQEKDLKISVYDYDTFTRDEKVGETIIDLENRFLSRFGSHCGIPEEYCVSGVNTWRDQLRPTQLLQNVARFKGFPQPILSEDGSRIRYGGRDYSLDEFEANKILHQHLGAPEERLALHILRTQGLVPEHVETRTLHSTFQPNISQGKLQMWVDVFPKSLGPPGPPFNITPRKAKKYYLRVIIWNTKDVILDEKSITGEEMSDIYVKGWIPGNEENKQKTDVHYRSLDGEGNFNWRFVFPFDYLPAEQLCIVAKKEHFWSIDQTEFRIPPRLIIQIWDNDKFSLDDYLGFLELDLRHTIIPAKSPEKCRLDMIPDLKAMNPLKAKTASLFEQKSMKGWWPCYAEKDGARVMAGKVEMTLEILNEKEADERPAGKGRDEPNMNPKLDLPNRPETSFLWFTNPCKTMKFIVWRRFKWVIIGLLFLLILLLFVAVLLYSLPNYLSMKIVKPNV
# Chain of hERG (KCNH2) (Q12809 whole entry): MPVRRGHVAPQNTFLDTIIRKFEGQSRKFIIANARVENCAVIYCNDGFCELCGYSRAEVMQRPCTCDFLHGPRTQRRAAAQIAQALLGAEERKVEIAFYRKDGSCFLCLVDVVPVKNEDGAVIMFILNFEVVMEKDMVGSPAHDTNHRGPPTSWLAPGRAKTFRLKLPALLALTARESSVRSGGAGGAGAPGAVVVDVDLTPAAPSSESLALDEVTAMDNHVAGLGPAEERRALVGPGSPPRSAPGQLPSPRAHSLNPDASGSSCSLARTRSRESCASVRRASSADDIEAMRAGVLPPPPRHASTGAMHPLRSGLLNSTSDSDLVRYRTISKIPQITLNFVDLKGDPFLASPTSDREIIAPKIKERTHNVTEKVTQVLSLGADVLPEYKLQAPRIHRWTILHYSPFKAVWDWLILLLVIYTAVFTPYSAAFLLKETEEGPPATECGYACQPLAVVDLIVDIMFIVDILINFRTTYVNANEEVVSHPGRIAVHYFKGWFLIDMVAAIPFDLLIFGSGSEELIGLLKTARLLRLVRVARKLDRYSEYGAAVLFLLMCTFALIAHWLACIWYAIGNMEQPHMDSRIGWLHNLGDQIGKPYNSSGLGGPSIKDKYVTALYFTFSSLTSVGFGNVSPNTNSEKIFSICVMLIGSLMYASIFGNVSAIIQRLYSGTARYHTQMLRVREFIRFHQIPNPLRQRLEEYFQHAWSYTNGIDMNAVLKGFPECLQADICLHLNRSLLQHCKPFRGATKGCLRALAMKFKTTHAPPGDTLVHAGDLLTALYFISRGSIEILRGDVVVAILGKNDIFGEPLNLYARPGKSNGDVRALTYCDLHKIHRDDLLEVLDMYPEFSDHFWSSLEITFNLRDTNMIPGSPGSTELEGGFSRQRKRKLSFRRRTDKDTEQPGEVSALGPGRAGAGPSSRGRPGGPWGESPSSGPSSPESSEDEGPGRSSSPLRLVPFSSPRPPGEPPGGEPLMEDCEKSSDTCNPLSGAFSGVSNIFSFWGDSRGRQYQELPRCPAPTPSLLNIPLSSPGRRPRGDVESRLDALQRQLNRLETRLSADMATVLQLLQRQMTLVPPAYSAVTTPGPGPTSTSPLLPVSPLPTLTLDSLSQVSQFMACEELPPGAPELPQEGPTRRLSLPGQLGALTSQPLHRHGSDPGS
# Chain of Cytochrome P450 2C19 (P33261 whole entry): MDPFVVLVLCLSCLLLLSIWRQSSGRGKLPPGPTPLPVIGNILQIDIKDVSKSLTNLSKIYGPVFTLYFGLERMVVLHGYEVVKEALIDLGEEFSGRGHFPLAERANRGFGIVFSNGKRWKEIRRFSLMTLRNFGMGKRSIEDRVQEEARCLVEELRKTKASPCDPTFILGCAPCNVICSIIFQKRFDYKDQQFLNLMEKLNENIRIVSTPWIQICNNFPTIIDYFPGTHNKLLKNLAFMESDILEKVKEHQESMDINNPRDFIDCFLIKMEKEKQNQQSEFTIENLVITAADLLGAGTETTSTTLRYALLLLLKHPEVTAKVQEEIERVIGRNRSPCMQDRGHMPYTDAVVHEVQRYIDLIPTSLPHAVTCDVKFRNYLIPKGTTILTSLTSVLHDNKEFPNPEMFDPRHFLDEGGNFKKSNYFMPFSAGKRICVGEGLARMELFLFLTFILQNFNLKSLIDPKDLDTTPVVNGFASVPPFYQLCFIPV
# Chain of Cytochrome P450 2C9 (P11712 whole entry): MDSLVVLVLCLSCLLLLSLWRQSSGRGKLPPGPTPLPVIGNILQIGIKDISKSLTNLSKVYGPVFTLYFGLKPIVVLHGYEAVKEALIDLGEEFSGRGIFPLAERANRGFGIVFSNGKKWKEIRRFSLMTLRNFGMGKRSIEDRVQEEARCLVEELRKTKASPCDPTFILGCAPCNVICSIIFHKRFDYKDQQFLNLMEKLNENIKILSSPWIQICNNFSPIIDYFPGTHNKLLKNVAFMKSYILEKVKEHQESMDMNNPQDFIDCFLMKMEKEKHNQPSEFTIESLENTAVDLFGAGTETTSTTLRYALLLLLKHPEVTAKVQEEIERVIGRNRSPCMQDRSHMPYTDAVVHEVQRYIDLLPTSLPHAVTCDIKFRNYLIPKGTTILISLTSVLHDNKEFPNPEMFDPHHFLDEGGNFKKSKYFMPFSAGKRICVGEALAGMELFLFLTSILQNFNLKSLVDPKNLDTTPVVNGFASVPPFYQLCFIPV
smiles,measurement,setting,value
CCc1nc(-c2ccc(OC)cc2)n(-c2cccc(C(=O)NCCCCn3nccn3)c2)n1,clearance,[1],22 mL/min/kg
same,IC50,BGC-823,0.29 µM
same,inhibition in vivo at 15 mg/kg/day,MKN-45,55.1%
same,Activity,[2],Non-Toxic
same,Activity,Myoferlin,Active
same,IC50,Cytochrome P450 2C19,18.8 µM
same,MRT,[3],40.3 min
same,IC50,CYP1A,> 50 µM
same,inhibition at 40 µM,hERG (KCNH2),46.6%
same,half-life,[4],13.2 min
same,IC50,Cytochrome P450 2C9,14.7 µM
same,bioavailability,[5],65.5%
same,IC50,AGS,0.46 µM
same,IC50,Cytochrome P450 3A4,35.1 µM
same,Vd,[6],0.377 L/kg
